In ChEMBL document CHEMBL5365473, “Novel Sulfonylurea-Based NLRP3 Inflammasome Inhibitor for Efficient Treatment of Nonalcoholic Steatohepatitis, Endotoxic Shock, and Colitis” (J Med Chem, 2023):

Target: NACHT, LRR and PYD domains-containing protein 3 (Mus musculus, UniProt Q8R4B8)
Experiment: Inhibition of NLRP3 inflammasome in mouse […] cells assessed as inhibition of LPS/ATP-induced IL-1 beta secretion primed with LPS for 4.5 hs followed by incubation with compound for 30 mins and later stimulation with ATP for 30 mins by ELISA
Format: cell-based, J774.A1

NACHT, LRR and PYD domains-containing protein 3, sequence (Q8R4B8 whole entry, the tested form may be a part): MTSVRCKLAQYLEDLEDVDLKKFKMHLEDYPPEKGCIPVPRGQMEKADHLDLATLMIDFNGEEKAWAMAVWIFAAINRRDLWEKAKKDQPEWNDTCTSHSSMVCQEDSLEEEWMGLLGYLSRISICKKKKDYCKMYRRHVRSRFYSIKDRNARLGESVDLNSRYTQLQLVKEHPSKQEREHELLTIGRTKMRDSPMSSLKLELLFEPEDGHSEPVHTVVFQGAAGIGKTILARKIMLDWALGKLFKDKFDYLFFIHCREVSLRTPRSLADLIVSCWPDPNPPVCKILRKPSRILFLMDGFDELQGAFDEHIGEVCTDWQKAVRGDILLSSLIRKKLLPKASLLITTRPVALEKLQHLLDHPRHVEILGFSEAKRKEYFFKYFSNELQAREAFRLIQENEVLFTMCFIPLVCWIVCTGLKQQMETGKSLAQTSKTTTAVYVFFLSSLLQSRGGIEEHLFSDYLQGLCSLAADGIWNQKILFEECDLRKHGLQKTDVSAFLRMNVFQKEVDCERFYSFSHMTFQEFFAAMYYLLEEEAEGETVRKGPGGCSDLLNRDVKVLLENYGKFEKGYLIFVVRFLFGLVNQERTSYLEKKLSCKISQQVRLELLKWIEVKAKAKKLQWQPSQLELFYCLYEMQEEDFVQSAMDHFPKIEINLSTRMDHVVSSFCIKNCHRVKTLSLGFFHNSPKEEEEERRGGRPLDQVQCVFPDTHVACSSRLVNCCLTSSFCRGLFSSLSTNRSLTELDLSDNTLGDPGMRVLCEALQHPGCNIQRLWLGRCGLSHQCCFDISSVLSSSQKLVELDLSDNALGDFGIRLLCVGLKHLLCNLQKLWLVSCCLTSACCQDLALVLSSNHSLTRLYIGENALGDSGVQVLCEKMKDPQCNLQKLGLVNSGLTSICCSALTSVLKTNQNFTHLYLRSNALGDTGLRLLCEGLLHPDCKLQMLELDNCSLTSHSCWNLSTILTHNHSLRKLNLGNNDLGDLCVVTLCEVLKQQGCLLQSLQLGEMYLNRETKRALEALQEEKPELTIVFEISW

IC50 [µM]	SMILES
> 10	Cc1cc(C)cc(NC(=O)NS(=O)(=O)c2ccc(CN(C)C)cc2)c1
> 20	CC(C)(O)c1cccc(S(=O)(=O)NC(=O)Nc2c3c(cc4c2CCC4)CCC3)c1
> 10	CCc1cccc(CC)c1NC(=O)NS(=O)(=O)c1ccc(CN(C)C)cc1
> 10	CCCN(C)Cc1ccc(S(=O)(=O)NC(=O)Nc2c3c(cc4c2CCC4)CCC3)cc1
1.73	CCCCCN(C)Cc1ccc(S(=O)(=O)NC(=O)Nc2c3c(cc4c2CCC4)CCC3)cc1
0.138	CC(C)c1cccc(C(C)C)c1NC(=O)NS(=O)(=O)c1ccc(CN(C)C)cc1
> 5	CC(C)(C)OC(=O)N1C=C(c2c3c(c(NC(=O)NS(=O)(=O)c4cc(C(C)(C)O)co4)c4c2CCC4)CCC3)CCC1

The remaining lines, values behind:

SMILES	IC50 [µM]
CC(C)(O)c1coc(S(=O)(=O)NC(=O)Nc2c3c(c(-c4ccc(C=O)cc4)c4c2CCC4)CCC3)c1	> 5
O=C(Nc1c2c(cc3c1CCC3)CCC2)NS(=O)(=O)c1ccc(CN2CCOCC2)cc1	3.69
CC(C)(O)c1cc(Br)cc(S(=O)(=O)NC(=O)Nc2c3c(cc4c2CCC4)CCC3)c1	> 20
CCCCN(C)Cc1ccc(S(=O)(=O)NC(=O)Nc2c3c(cc4c2CCC4)CCC3)cc1	> 10
COC1CN(Cc2cccc(S(=O)(=O)NC(=O)Nc3c4c(cc5c3CCC5)CCC4)c2)C1	5
CN(C)Cc1ccc(S(=O)(=O)NC(=O)Nc2c(-c3ccccc3)cccc2-c2ccccc2)cc1	1.48
CN(C)Cc1cc(F)cc(S(=O)(=O)NC(=O)Nc2c3c(cc4c2CCC4)CCC3)c1	0.722
CNC(=O)c1cccc(S(=O)(=O)NC(=O)Nc2c3c(cc4c2CCC4)CCC3)c1	3.72
